Patent publication US20120272401A1 (priority 2009, published 2012)

Legend:
AtABCG25 protein = molecular target: T1, AtABCG25 protein (Arabidopsis thaliana, UniProt Q84TH5, L179I); format: biochemical; details: for Promotion of ABA uptake by nucleotide (energy dependence): 4 mM of the indicated nucleotide; for Inhibition of ATP-dependent ABA uptake by nucleotide: 4 mM of the indicated nucleotide in addition to ATP
T1 construct: Full-length cDNA of the AtABCG25 (Atlg71960) gene was obtained from the RIKEN BioResource Center; made in house; host or cells: Sf9 insect cells (Spodoptera frugiperda), BaculoGold baculovirus system; membrane vesicles
Protocol: Such activity is measured using the vesicle transport assay method described in the Examples below. […] The candidate of ABA transporter protein is expressed in such cell membrane. The membrane comprises inside-out membrane vesicles in which the inside and the outside are inverted.
A BaculoGold™ baculovirus expression vector system (BD PharMingen) was used to prepare the recombinant baculovirus. Sf9 insect cells (Spodoptera frugiperda) were infected with the virus and cultured in SF900-SFM medium (Invitrogen) at 27° C. for 72 hours in a shaking incubator. Cells were collected by centrifugation at 1,100×g for 10 minutes and then disrupted by nitrogen cavitation in 150 mM NaCl. 3 mM CaCl2, 2 mM MgCl2, 0.1 mM EGTA, and 10 mM Tris-HCl (pH 7.4). Undisrupted cells, nuclear debris, and mitochondria were pelleted by centrifugation at 2,600×g for 10 minutes. The supernatant was centrifuged at 100,000×g for 30 minutes, and the pellet was resuspended in 70 mM KCl, 7.5 mM MgCl2, and 50 mM MOPS-Tris (pH 7.0). Membrane vesicles were stored by freezing in a deep freezer until use. Concentration of the protein was measured using the BCA protein assay kit (Pierce) with bovine serum albumin as a control. To confirm the production of the AtABCG25 proteins in the Sf9 cells by Western blot analysis, an anti-AtABCG25 antibody was obtained by immunizing a rabbit with a synthetic peptide (Operon Biotechnologies). This synthetic peptide consisted of 3 types of 12 to 14 amino acid residues from the Arabidopsis AtABCG25 protein, designed based on positions 69 to 82 ([…]), positions 132 to 143 ([…]), and positions 328 to 340 ([…]). Membrane proteins were solubilized using 4% SDS and subjected to 10% SDS-PAGE. Proteins were transferred to a polyvinylidene difluoride membrane and probed using a rabbit anti-AtABCG25 antibody and horseradish-peroxidase-conjugated donkey anti-rabbit IgG. Specific immunoreactive proteins were detected by exposure to an autoradiography film using a chemiluminescence detection system (ECL-plus, Amersham Biosciences).
An experiment of membrane transport was carried out using the rapid filtration technique (Otsuka, M. et al., 2005, Proc. Natl. Acad. Sci., U.S.A., 102: 17923-17928). […] The transport medium was passed through a 0.45-μm nitrocellulose filter (Millipore), and the filter was washed with 6 ml of ice-cooled stop buffer (70 mM KCl, 7.5 mM MgCl2, 50 mM MOPS-Tris, pH 7.0). The radioactivity retained on the filter was determined using a liquid scintillation counter (Tri-Carb2800TRs; PerkinElmer). Membrane vesicles from Sf9 cells containing only the vector were used as the controls.

[1] = system: AtABCG25 promoter (pAtABCG25::GUS reporter); experiment: GUS staining of pAtABCG25::GUS transgenic plants after ABA treatment; format: in vivo, Arabidopsis; details: 10 μM ABA
Protocol: RNA was extracted from Arabidopsis plants for RT-PCR using the RNeasy Plant Mini Kit (Qiagen). RT-PCR was carried out using AtABCG25_RT-PCR—5′ (5′-[…]-3′ (SEQ ID NO: 8)) and AtABCG25_RT-PCR—3′ (5′-[…]-3′ (SEQ ID NO: 9)) primers with the PrimeScript One Step RT-PCR kit (Takara Bio). The Actin2 transcript as a control was amplified using Actin2RT-F (5′-[…]-3′ (SEQ ID NO: 10)) and Actin2RT-R (5″-[…]-3′ (SEQ ID NO: 11)) primers. GUS staining was carried out according to the standard protocol (Sundaresan, V. et al., 1995, Genes Dev9: 1797-1810). The plants stained with GUS were observed under a SZ61 stereoscopic microscope (Olympus), and digital images were obtained using the DS-L1 CCD digital camera (Nikon). Finer images were photographed using a BX60 upright microscope (Olympus) and a VB-7010 CCD camera (Keyence). For transgenic lines to be examined for GUS expression from the AtABCG25 promoter a 2-kb AtABCG25 promoter region was prepared by amplifying the region using AtABCG25pro_Forward (5′-[…]-3′ (SEQ ID NO: 12)) and AtABCG25pro_Reverse (5′-[…]-3′ (SEQ ID NO: 13)) primers with KOD-plus polymerase (Toyobo), cloning the amplified product into the pENTR/D/TOPO vector (Invitrogen), and integrating the resultant into the GUS-fusion vector pBGGUS (Kubo, M. et al., 2005, Genes Dev 19: 1855-1860).

[2] = system: CC1=CC(=O)CC(C)(C)C1(O)/C=C/C(C)=C\C(=O)O; experiment: cells, lysate or membranes named; details: other: membrane vesicles expressing AtABCG25, ATP-dependent uptake measured for 15 seconds at indicated ABA concentrations; 27.0 °C

T1 sequence (Q84TH5 whole entry L179I): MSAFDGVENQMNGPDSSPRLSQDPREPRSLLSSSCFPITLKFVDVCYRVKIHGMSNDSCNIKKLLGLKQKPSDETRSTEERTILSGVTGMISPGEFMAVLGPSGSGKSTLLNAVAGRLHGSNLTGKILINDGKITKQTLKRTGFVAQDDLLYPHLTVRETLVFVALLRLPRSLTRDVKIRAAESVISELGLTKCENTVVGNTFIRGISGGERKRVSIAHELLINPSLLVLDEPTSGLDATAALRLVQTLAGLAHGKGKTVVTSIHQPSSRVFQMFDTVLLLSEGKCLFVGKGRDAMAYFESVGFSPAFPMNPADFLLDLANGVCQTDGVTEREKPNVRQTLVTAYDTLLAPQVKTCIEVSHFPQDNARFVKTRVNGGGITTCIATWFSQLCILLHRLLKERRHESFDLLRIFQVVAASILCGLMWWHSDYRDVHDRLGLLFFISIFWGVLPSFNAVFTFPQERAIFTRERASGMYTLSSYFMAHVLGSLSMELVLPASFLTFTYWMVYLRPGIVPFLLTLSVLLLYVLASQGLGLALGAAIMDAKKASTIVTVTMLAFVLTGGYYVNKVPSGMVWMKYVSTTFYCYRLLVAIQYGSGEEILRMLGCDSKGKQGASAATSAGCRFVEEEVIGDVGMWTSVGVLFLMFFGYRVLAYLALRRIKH

CC1=CC(=O)CC(C)(C)C1(O)/C=C/C(C)=C\C(=O)O (racemic) [ABA, abscisic acid]
ABA uptake in the presence of ATP, full activity (100%) (AtABCG25 protein; at 15 seconds, in the presence of ATP, no competing compound): 8.3 μmol/mg protein | Expression level of the GUS reporter after ABA treatment [1]: increased

CC1=CC(=O)CC(C)(C)C1(O)/C=C/C(C)=C\C(=O)O (single isomer, unassigned; (-)) [(−)ABA]
Cis-inhibition of ATP-dependent ABA uptake (substrate specificity) (AtABCG25 protein; in the presence of ATP and compound, (+)ABA at a 10-fold concentration): not influenced

Nc1ncnc2c1ncn2[C@@H]1O[C@H](COP(=O)(O)OP(=O)(O)O)[C@@H](O)[C@H]1O [ADP]
Promotion of ABA uptake by nucleotide (energy dependence) (AtABCG25 protein): neither ADP nor AMP promoted | Inhibition of ATP-dependent ABA uptake by nucleotide (AtABCG25 protein): inhibited

Nc1ncnc2c1ncn2[C@@H]1O[C@H](COP(=O)(O)O)[C@@H](O)[C@H]1O [AMP]
Promotion of ABA uptake by nucleotide (energy dependence) (AtABCG25 protein): neither ADP nor AMP promoted | Inhibition of ATP-dependent ABA uptake by nucleotide (AtABCG25 protein): did not exhibit any inhibitory effect

Nc1ncnc2c1ncn2[C@@H]1O[C@H](COP(=O)(O)OP(=O)(O)OP(=O)(O)O)[C@@H](O)[C@H]1O [ATP, adenosine triphosphate]
Promotion of ABA uptake by nucleotide (energy dependence) (AtABCG25 protein): significantly promoted

[O]=[V]([O-])([O-])[O-] [Vanadate]
Inhibition of ATP-dependent ABA uptake by vanadate (AtABCG25 protein; 1 mM vanadate in addition to ATP): inhibited

AtABCG25 protein (Arabidopsis thaliana; L179I)
Km [2]: 0.23 µM | Vmax [2]: 6.2 μmol/min/mg protein
